Test results published in patent US7731960B2, “Antibodies that inhibit transport activity of peptide transporters” (Chugai Seiyaku Kabushiki Kaisha, priority 2003, dated 2010).

What was measured:
Format in all cases: cell-based
[1] = biological target: T1, human PepT2 (Homo sapiens, UniProt Q16348); experiment: [3H] glycylsarcosine uptake into BaF3/PepT2 cells; details: FIG. 4
T1 construct: expressed in transfected cells; host or cells: murine bone marrow-derived BaF3 cells
T1 sequence (Q16348 1-729): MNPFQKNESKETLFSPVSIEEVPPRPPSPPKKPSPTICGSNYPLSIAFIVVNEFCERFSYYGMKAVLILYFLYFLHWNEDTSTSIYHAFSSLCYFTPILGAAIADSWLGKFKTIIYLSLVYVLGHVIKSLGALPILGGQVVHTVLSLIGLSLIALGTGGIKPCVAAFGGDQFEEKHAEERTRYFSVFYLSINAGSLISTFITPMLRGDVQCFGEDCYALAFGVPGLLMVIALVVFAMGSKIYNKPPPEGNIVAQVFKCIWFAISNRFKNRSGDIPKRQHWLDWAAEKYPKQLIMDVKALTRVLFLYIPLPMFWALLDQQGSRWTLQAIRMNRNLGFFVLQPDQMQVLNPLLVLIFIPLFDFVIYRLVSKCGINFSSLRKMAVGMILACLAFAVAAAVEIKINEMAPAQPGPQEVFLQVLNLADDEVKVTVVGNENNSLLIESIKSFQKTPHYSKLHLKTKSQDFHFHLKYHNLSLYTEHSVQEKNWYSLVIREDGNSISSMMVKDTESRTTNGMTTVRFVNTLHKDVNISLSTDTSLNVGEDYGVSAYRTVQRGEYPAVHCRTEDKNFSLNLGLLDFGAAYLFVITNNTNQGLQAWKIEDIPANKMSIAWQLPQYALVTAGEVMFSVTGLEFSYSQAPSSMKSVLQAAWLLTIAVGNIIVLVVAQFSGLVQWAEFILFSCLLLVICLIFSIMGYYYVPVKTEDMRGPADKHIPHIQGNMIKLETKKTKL
Excerpt: FIG. 4 is a graph showing the PepT2 inhibiting ability of AT-264 in BaF3/PepT2. The data are shown as an average±S.D. (n=3 to 4).
The ability of AT-264 to inhibit PepT2 was examined using a murine bone marrow-derived cell line BaF3 in which human PepT2 is forcedly expressed (hereinafter, abbreviated as BaF3/PepT2).

[2] = tested on: human pancreatic cancer cell line AsPC-1; experiment: Cell growth inhibition of AsPC-1, MTS assay after six days of culture
Procedure: FIG. 3 is a graph showing the cell growth inhibitory effect of AT-264 against human pancreatic cancer cell line AsPC-1. The data are shown as an average±S.D. (n=3 to 4).
(§1) AT-264 was dissolved in RPMI1640-10 mM Hepes (hereinafter, abbreviated as ‘the medium’) containing 0.5% ethanol and 0.5% DMSO to prepare 2.5 mM AT-264 solution. Then, this solution was diluted with the medium to prepare 0.625 mM and 0.0625 mM AT-264 solutions.
A 5×10^4 cells/mL solution of human pancreatic cancer cell line AsPC-1 was prepared using a medium containing 50% FBS. This suspension was seeded at 40 μL/well (2×10^3 cells) onto a 96-well plate pre-coated with Collagen type I, and 160 μL of the AT-264 solution was added. This was cultured for six days in a CO2 incubator (on the second day of culture, 100 units/mL penicillin and 0.1 mg/mL streptomycin were added). On the sixth day of culture, the number of viable cells was quantified by MTS assay.

[3] = tested on: human pancreatic cancer cell line BxPC-3; experiment: Cell growth inhibition of BxPC-3, MTS assay after six days of culture
Procedure: FIG. 5 is a graph showing the cell growth inhibitory effect of AT-264 against human pancreatic cancer cell line BxPC-3. The data are shown as an average±S.D. (n=6).
as §1, with “Hepes with 100 units/mL penicillin and 0.1 mg/mL streptomycin” for “Hepes”, “Furthermore,” for “Then,”
5×10^4 cells/mL solution of BxPC-3 was prepared using the medium containing 50% FBS. This suspension was seeded at 40 μL/well (2×10^3 cells) onto a 96-well plate pre-coated with Collagen type I, and 160 μL of AT-264 solution was added. This was cultured for six days in a CO2 incubator, and on the sixth day of culture, the number of viable cells was quantified by MTS assay.

[4] = biological target: T2, human PepT1 (Homo sapiens, UniProt P46059); experiment: [14C] glycylsarcosine uptake into BaF3/PepT1 cells; details: FIG. 2
T2 sequence (P46059 1-708): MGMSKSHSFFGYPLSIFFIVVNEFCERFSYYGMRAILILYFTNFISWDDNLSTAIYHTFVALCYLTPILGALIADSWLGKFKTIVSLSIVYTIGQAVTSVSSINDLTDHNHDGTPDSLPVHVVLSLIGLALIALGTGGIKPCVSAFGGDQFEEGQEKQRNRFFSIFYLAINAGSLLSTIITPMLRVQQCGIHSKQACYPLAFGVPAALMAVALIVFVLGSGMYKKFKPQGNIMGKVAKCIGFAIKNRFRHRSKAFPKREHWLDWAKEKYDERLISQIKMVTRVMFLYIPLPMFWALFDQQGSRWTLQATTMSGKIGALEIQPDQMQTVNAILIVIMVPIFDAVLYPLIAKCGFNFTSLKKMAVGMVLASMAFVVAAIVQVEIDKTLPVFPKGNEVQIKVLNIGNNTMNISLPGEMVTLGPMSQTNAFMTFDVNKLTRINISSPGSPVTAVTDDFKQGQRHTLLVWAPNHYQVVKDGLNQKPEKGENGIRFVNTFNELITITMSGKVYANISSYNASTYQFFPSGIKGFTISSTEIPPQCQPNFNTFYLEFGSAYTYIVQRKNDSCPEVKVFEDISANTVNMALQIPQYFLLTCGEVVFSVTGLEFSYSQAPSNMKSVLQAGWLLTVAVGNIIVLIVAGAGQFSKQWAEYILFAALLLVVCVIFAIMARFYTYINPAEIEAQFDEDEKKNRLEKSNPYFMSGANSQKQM
Excerpt: FIG. 2 is a graph showing the PepT1 inhibiting ability of AT-264 in BaF3 cells.
The ability of AT-264 to inhibit PepT1 was examined by forcedly expressing human PepT1 in mouse bone marrow-derived BaF3 cells (hereinafter abbreviated as BaF3/PepT1).

## N=C(N)c1cccc(CC(NS(=O)(=O)NCc2cccc3ccccc23)C(=O)N2CCCCC2C(=O)O)c1 (centres unmarked) [AT-264]
[1]
  uptake of [3H] glycylsarcosine into cells: inhibited in a concentration-dependent manner
[2]; AsPC-1, 0.5 mM AT-264, six days, MTS assay
  cell growth inhibition: slight
[2]; AsPC-1 in the presence of AT-264
  morphological changes under the microscope: not observed
[2]; Homo sapiens, ASPC1, 144 h, AsPC-1, 2 mM AT-264, six days, MTS assay
  inhibition at 2000 µM: ~30%
[3]; BxPC-3 in the presence of AT-264
  morphological changes under the microscope: not observed
[3]; Homo sapiens, 144 h, BxPC-3, 0.5 mM AT-264, six days, MTS assay
  inhibition at 500 µM: ~20%
[3]; Homo sapiens, 144 h, BxPC-3, 2 mM AT-264, six days, MTS assay
  inhibition at 2000 µM: ~75%
[4]
  uptake of [14C] glycylsarcosine into cells: inhibited in a concentration-dependent manner
